Experimental findings from US9420813B2, “Sweetener” (AJINOMOTO CO., INC., priority 2007, dated 2016) are described below.

A short description of assay [1]: Quantitative sensory evaluation test, intensity of kokumi-imparting activity. To be noted: sample 0.1 g/dl, control 0, glutathione 3 points.
Description: The quantitative sensory evaluation test was performed as follows. […] When a sample is acidic when dissolved, the pH was adjusted with NaOH to pH 6.8 to 7.2 before use. Because it is known that glutathione can impart kokumi to a food, glutathione was used as a comparative control. The test was performed with n=3 based on the following sensory evaluation scores: control was given 0 points, glutathione addition was given 3 points. […] It should be noted that the term “initial and middle taste” is a collective term of the initial taste and middle taste.
The quantitative sensory evaluation test was performed as follows. […] When a sample is acidic when dissolved, the pH of the sample was adjusted with NaOH to pH 6.8 to 7.2 before use. The test was performed with n=5 based on the following sensory evaluation scores: control was given 0 point and glutathione addition was given 3 points.
The quantitative sensory evaluation test was performed as follows. […] As for a sample which is acidic when the sample is dissolved, pH of the sample was adjusted with NaOH to pH 6.8 to 7.2 before use. The test was performed with n=12 based on the following sensory evaluation scores: control: 0 point and glutathione addition: 3 points.
Another assay addresses T1, human calcium receptor (Homo sapiens, UniProt P41180).
T1 construct: expressed in transfected cells; host or cells: Xenopus laevis oocytes injected with receptor cRNA; the gene was amplified by PCR from human kidney cDNA (Clontech) and cloned in pBR322
T1 sequence (P41180 20-1078): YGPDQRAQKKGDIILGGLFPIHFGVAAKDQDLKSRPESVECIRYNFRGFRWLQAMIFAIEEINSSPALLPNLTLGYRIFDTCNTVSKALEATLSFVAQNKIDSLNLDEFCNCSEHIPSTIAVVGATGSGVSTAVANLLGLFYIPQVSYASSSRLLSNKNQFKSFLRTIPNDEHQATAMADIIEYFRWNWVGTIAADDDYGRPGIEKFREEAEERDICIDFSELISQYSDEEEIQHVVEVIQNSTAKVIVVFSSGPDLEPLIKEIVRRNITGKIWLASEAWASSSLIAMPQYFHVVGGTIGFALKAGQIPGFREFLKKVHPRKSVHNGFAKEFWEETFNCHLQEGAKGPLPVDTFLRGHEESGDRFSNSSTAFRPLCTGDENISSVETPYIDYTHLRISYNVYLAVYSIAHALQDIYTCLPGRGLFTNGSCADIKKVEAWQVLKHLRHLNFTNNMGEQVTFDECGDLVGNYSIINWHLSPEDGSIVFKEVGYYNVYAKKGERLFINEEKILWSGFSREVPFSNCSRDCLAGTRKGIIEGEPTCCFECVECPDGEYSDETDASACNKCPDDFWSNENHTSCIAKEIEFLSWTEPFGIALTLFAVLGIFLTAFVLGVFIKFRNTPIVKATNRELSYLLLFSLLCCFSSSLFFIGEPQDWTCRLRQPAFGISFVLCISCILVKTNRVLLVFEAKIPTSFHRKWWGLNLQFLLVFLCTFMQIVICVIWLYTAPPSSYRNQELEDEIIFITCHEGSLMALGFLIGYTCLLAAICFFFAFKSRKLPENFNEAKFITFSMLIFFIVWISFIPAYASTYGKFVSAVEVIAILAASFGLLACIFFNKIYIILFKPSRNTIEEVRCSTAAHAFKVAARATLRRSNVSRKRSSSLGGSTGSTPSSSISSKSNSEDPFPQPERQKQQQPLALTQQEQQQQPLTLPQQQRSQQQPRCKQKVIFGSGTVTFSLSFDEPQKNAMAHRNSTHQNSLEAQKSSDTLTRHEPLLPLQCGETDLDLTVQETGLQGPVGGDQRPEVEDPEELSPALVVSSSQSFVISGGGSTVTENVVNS
Description: Calcium receptor-activating effect, Ca ion concentration-dependent Cl ionic current in Xenopus laevis oocyte expression system. The class given is cell-based. To be noted: peptide added at 50 μM. The method, then: For evaluation of the calcium receptor-activating effect, Ca ion concentration-dependent Cl ionic current measuring method using a Xenopus laevis oocyte expression system was used. If activator is added to Xenopus laevis oocytes in which the calcium receptor is expressed, intracellular Ca ions increase. Then, the Ca ion concentration-dependent Cl channel opens, and the intracellular current value changes as an ionic current. By measuring the change in the intracellular current value, whether the calcium receptor-activating effect is present or not can be determined.
Specifically, the abdomen of Xenopus laevis was opened, and an egg batch was taken out and then treated with a 1% collagenase solution at 20° C. for 2 hours to obtain individual oocytes. Into each oocyte, 50 nl of 1 μg/μl receptor cRNA or 50 nl of sterilized water per oocyte were injected by using a micro glass capillary, and the oocytes were cultured at 18° C. for 2 to 3 days. For the culture, a solution obtained by adding 2 mM of pyruvic acid, 10 U/ml of penicillin and 10 μg/ml of streptomycin to the solution in Reference Example 2 was used. After the culture, a test solution was added to the oocytes injected with cRNA or sterilized water. Electrophysiological measurement was performed by using an amplifier Geneclamp 500 (manufactured by Axon) and recording software AxoScope 9.0 (manufactured by Axon). The oocytes were voltage-clamped at −70 mV by the double electrode voltage clamp method, and the intracellular current via the Ca ion concentration-dependent Cl ion was measured. The maximum value of the intracellular currents was defined as the response current value.
The ability of L-amino acids to activate the calcium receptor was evaluated by using the method described in Reference Example 6. That is, oocytes injected with cRNA of the calcium receptor or sterilized water were prepared, and voltage-clamped at −70 mV by the double electrode voltage clamp method. To the voltage-clamped oocytes, alanine (10 mM), arginine (10 mM), asparagine (10 mM), aspartic acid (10 mM), cysteine (10 mM), glutamine (10 mM), glutamic acid (10 mM), glycine (10 mM), histidine (10 mM), isoleucine (10 mM), leucine (10 mM), lysine (10 mM), methionine (10 mM), phenylalanine (10 mM), proline (10 mM), serine (10 mM), threonine (10 mM), tryptophan (10 mM), tyrosine (10 mM), valine (10 mM), ornithine (10 mM), taurine (10 mM) or hydroxyproline (10 mM) was added, and Ca ion concentration-dependent Cl response current was measured. […] 25, 2000, 97(9): 4814-9.
The effect of D-cysteine for activating a calcium receptor was evaluated by using the method described in Reference Example 6. That is, oocytes injected with cRNA of the calcium receptor or sterilized water were prepared, and voltage-clamped at −70 mV by the double electrode voltage clamp method. To the voltage-clamped oocytes, D-cysteine (10 mM), L-cysteine (10 mM), D-tryptophan (10 mM) or L-tryptophan (10 mM) was added, and Ca ion concentration-dependent Cl response current was measured.
The effect of peptide for activating calcium receptor was evaluated by using the method described in Reference Example 6. That is, oocytes injected with cRNA of the calcium receptor or sterilized water were prepared, and voltage-clamped at −70 mV by the double electrode voltage clamp method. To the voltage-clamped oocytes, γ-Glu-Cys-Gly (50 μM), γ-Glu-Cys(SNO)-Gly (50 μM), γ-Glu-Ala (50 μM), γ-Glu-Gly (500 μM), γ-Glu-Cys (50 μM), γ-Glu-Met (500 μM), γ-Glu-Thr (50 μM), γ-Glu-Val (50 μM), γ-Glu-Orn (500 μM), Asp-Gly (1 mM), Cys-Gly (1 mM), Cys-Met (1 mM), Glu-Cys (50 μM), Gly-Cys (500 μM) or Leu-Asp (1 mM) was added, and Ca ion concentration-dependent Cl response current was measured.
The ability of a peptide to activate calcium receptor was evaluated in the same manner as that of Reference Example 10.

*1 amine or outer side, *2 acyl side, *3 side chain or, on linkers, in order; H or OH if unused. Where no end group is shown, it is not given here. [ ]: non-standard residue; d: D form. γGlu = O=C(O)[C@H](CCC(=O)[*:2])N[*:1]

On to [γGlu]-Val, for which, in assay [1] (n=3), the “Kokumi intensity, aftertaste” value was found to be 1.0 points; the “Kokumi intensity, initial and middle taste” value came out at 3.0 points. Moreover, in assay [1] (n=5), the “Kokumi intensity, aftertaste” value is given as 1.0 points; the “Kokumi intensity, initial and middle taste” value is listed as 3.0 points. Besides, on human calcium receptor, the “effect for activating calcium receptor (Cl response current)” value is on record as “definite effect for activating calcium receptor”.
